Laboratory results reported in ChEMBL document CHEMBL1150479, “2-(3-hydroxypropoxy)-1,25-dihydroxyvitamin D3 (ED-71), preventive and therapeutic effects on bone mineral loss in ovariectomized rats” (Bioorg Med Chem Lett, 1993).
Calls of active or inactive are those of the source. The rule behind the calls is not given here.

What was measured:
Rattus norvegicus [1] = organism: Rattus norvegicus; assay: In vitro bone resorption against ovariectomized rats; Stimulation; type: functional
Rattus norvegicus [2] = assay: In vivo bone calcium mobilization was determined against ovariectomized rats; Stimulation; type: functional, organism-based
[3] = molecular target: T1, Vitamin D3 receptor (Rattus norvegicus) (UniProt P13053)
T1 sequence (whole entry): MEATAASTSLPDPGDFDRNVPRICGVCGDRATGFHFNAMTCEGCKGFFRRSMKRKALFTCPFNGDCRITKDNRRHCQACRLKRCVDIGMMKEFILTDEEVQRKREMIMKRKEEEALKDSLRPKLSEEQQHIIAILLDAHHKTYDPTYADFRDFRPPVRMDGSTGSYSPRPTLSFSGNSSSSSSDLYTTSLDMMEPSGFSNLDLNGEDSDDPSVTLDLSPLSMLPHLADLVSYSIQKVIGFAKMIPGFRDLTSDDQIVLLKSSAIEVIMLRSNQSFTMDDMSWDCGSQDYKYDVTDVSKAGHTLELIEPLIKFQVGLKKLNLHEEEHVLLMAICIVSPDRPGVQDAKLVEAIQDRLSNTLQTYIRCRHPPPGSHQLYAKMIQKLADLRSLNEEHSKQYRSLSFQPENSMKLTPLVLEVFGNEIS
Description: In vitro binding potency for vitamin D receptor VDR in ovariectomized rats

[4] = molecular target: T2, Vitamin D-binding protein (Rattus norvegicus) (UniProt P04276); assay: In vitro binding potency against vitamin D binding protein (DBP) in ovariectomized rats
T2 sequence (whole entry): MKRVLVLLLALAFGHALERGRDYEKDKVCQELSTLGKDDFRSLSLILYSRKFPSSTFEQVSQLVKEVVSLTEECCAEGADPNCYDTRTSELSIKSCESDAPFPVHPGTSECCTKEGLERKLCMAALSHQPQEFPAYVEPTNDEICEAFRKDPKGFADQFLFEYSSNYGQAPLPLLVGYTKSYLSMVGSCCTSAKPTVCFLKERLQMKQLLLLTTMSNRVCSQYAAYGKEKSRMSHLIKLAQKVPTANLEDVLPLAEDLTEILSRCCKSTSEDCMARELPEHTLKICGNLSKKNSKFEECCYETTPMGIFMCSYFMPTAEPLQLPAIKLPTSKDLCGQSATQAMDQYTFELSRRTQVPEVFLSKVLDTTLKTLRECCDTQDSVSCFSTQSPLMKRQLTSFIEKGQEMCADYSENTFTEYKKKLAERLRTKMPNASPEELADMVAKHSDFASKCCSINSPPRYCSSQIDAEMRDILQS

Rattus norvegicus [5] = assay: In vivo intestinal calcium absorption was determined against ovariectomized rats; Stimulation; type: functional, organism-based
Rattus norvegicus [6] = organism: Rattus norvegicus; assay: In vitro bone resorption against ovariectomized rats; Weak stimulation; type: functional
[7] = molecular target: T1, Vitamin D3 receptor (Rattus norvegicus); assay: In vitro binding potency for vitamin D receptor VDR in 8 ovariectomized rats

Row | SMILES | Resorption (Rattus norvegicus [1]) | Mobilization (Rattus norvegicus [2]) | Binding potency [3] | Binding potency [4] | Absorption (Rattus norvegicus [5]) | Resorption (Rattus norvegicus [6]) | Binding potency [7]
1 | C=C1/C(=C\C=C2/CCC[C@]3(C)[C@@H]([C@H](C)CCCC(C)(C)O)CC[C@@H]23)C[C@@H](O)C[C@@H]1O | Active | Active | 1 | 1 | Active | – | –
2 | C=C1/C(=C\C=C2/CCC[C@]3(C)C([C@H](C)CCCC(C)(C)O)CC[C@@H]23)C[C@@H](O)[C@@H](OCCCO)[C@@H]1O (stereo not given in full) | – | Active | – | 2.7 | Active | Partially active | 1
